# Laboratory results as given in ChEMBL document CHEMBL1201862, “PubChem BioAssay data set” (2004).
# Activity calls are given as the source filed them.
# Legend:
# [1] = target: DNA dC->dU-editing enzyme APOBEC-3G (Homo sapiens, UniProt Q9HC16); assay: Dose Response confirmation of small molecule APOBEC3G DNA Deaminase Inhibitors via a fluorescence-based single-stranded DNA deaminase assay. [Related pubchem assays (depositor defined):AID493012, AID493028]; type: functional
# [2] = NIH-3T3 fibroblast cytotoxicity, dose response, cytotoxicity control, cell-based, fluorescence, Alamar Blue, secondary assay (AID 2327); type: functional;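 further: NIH-3T3 mouse fibroblasts cultured with fluconazole at 8 µg/mL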
# [3] = C. albicans growth with fluconazole, confirmation, fluorescence, retest (AID 2467); type: functional, cell-based
# [4] = system: H9c2; assay: cells; type: functional, cell-based; settings: Rattus norvegicus, H9c2, Myocardium;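 further: confirmatory concentration-response retest of ultra-high-throughput screening hits for modulation of myocardial damage; cell death induced by hydrogen peroxide oxidative stress; compound pretreatment for 60 min then peroxide exposure for 2 h; potency is for protecting the cells against peroxide damage rather than for killing them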
# [5] = target: Nonstructural protein 1 (Influenza A virus, UniProt Q194T2); type: functional, Influenza A virus (A/California/07/2009(H1N1))
# Sequence of Nonstructural protein 1 (Q194T2 whole entry): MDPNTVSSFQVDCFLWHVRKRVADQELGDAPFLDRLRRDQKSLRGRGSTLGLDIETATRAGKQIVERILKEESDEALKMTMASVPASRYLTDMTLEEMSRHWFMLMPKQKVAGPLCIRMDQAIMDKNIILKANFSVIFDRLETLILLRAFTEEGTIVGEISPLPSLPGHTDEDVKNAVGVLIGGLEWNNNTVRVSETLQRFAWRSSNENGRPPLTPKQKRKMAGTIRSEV
# [6] = cytotoxicity toward NIH3T3 fibroblasts, dose response, counter-screen, cell-based, ATP luminescence, mouse fibroblasts (AID 2010); type: functional;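 further: cells exposed to compound for about 90 hours before reading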
# [7] = inhibitors of intracellular T. cruzi replication, confirmation, NIH3T3 host cells, beta-gal luminescence (AID 2044); type: functional, cell-based;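 further: intracellular parasites grown in NIH/3T3 mouse fibroblasts as host cells; luminescent beta-galactosidase reporter signal from transgenic T. cruzi replicating inside host cells; inhibitors lower the luminescence signal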
# [8] = ZM109 Env clade C HIV-1 fusion inhibitors, dose response, HeLa effector, CEM target cells, luciferase, cherry-pick (AID 652058); type: functional, cell-based
# [9] = off-target signal loss in HeLa-CEM21 co-culture – HeLa F-luc CTL cells, cherry-picked, counter-screen for HIV-1 Env fusion inhibitor project, dose response (AID 652040); type: functional, cell-based;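 further: potency for signal decrease marking cytotoxic or nonspecific inhibition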
# [10] = inhibitors of HIV Env-driven cell fusion, dose response, cherry-pick (AID 652057); type: functional, cell-based
# [11] = target: Heat shock protein HSP 90-alpha (Homo sapiens, UniProt P07900); type: functional, organism-based
# [12] = inhibitors of clade B AD8 Env fusion, dose response, cell-based, cherry-pick (AID 652062); type: functional;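 further: luciferase signal from cell-cell fusion driven by HIV-1 clade B AD8 Env; potency is for inhibitors of fusion seen as a drop in luminescence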
# [13] = cells; type: functional, cell-based
# [14] = cells; type: functional, cell-based; remark: listed apart in the source
# [15] = target: T1, Streptokinase A (Streptococcus pyogenes serotype M1, UniProt P10520); assay: S. pyogenes streptokinase expression inhibitors, potency, dose response, plasminogen activation absorbance, OD405 (AID 1914); type: functional, Streptococcus pyogenes M1 GAS;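 further: secreted streptokinase activity via plasminogen activation per viability signal from cell pellet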
# T1 sequence (P10520 whole entry): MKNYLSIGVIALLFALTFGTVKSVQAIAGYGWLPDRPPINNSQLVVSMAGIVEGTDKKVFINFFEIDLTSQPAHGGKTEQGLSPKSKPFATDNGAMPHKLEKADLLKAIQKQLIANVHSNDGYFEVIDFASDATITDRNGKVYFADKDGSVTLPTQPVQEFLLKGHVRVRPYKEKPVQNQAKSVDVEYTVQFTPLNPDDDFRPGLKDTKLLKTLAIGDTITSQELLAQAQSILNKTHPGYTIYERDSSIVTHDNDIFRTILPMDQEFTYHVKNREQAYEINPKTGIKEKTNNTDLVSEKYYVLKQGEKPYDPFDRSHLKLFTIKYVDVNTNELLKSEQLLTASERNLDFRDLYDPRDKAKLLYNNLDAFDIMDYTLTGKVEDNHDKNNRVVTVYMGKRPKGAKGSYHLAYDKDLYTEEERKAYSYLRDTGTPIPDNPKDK
# [16] = system: Streptococcus; assay: Group A Streptococcus viability loss, dose response, counter-screen for streptokinase expression inhibitor project, luminescence, BacTiterGlo (AID 1915); type: functional, organism-based;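 further: potency for reduction of bacterial viability or growth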
# [17] = system: Streptococcus sp. 'group A'; assay: growth inhibition of control SK(-) GAS strain, dose response, counter-screen for streptokinase expression inhibitor project, luminescence, kanamycin, BacTiterGlo, confirmation (AID 1900); type: functional, organism-based
# [18] = target: T2, Ubiquitin-conjugating enzyme E2 N (Homo sapiens, UniProt P61088); type: functional;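 further: Dose-response confirmation in a TR-FRET assay detecting UBC13-driven polyubiquitin chain formation, inhibition measured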
# T2 sequence (P61088 whole entry): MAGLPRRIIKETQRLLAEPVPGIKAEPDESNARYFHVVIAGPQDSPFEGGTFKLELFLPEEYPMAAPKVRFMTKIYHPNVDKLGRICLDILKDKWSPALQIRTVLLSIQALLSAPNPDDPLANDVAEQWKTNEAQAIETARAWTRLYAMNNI
# [19] = target: T3, Zinc finger protein mex-5 (Caenorhabditis elegans, UniProt Q9XUB2); assay: MEX-5/TCR-2 RNA interaction inhibitors, dose response, biochemical, C. elegans, fluorescence polarization (AID 1960)
# T3 sequence (Q9XUB2 whole entry): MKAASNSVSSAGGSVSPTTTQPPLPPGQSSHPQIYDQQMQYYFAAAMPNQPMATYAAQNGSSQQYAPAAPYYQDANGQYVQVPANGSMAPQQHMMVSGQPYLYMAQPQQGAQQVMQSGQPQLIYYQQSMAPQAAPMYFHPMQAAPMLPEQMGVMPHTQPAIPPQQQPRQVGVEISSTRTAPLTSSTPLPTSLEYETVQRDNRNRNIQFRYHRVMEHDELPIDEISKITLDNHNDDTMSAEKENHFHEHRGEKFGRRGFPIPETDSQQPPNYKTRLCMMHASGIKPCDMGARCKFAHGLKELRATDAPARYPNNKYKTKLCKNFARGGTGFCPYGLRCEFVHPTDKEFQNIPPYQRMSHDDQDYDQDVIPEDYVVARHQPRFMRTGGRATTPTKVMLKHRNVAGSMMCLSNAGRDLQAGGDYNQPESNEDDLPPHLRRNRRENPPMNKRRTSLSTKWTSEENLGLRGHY
# [20] = target: Genome polyprotein (dengue virus type 2, UniProt P29990); assay: Dengue-2 NS5 methyltransferase inhibitors, primary screen, biochemical, confirmation dose response (AID 588689); type: functional
# Sequence of Genome polyprotein (P29990 2492-3391 limits assumed): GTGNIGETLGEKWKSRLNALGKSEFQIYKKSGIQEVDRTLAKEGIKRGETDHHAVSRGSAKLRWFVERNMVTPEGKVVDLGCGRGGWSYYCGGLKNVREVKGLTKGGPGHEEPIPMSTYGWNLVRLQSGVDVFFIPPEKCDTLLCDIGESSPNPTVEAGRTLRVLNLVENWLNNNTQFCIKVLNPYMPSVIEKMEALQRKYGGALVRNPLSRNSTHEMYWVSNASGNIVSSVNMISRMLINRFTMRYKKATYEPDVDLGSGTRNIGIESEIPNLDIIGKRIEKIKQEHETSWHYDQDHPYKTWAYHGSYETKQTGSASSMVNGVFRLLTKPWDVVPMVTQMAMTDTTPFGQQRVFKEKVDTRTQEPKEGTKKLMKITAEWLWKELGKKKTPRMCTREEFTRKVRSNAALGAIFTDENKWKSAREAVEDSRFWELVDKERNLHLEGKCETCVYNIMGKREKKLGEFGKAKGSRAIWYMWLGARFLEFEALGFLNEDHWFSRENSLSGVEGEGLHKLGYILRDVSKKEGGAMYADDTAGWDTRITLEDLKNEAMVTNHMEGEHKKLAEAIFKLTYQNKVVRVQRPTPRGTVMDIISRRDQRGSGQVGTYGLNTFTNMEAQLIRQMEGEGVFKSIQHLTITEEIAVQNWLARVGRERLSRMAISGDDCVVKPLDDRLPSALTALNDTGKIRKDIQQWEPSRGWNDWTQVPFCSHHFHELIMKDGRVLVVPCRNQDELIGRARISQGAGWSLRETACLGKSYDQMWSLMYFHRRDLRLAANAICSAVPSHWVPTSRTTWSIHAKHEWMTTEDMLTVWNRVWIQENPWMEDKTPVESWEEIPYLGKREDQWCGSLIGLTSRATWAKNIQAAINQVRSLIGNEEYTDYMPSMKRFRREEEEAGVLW
# [21] = target: T4, RNA-binding protein pos-1 (Caenorhabditis elegans, UniProt G5EF15); assay: inhibitors of POS-1/mex-3 RNA binding, dose response, biochemical, fluorescence polarization (AID 1964);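 further: purified POS-1 fused to maltose binding protein made in E. coli; potency of compounds blocking POS-1 binding to fluorescent RNA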
# T4 sequence (G5EF15 whole entry): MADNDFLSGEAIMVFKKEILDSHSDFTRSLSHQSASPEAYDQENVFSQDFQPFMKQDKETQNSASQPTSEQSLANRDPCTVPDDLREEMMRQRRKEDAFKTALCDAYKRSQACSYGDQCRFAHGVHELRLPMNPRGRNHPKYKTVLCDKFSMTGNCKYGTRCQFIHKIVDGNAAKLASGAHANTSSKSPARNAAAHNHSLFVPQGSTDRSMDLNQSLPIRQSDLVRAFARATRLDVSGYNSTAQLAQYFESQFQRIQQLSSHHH
# [22] = system: INS1; assay: beta cell apoptosis inhibitors, cytokine rescue, dose response, luminescence, retest (AID 449756); type: functional, cell-based; settings: Rattus norvegicus;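 further: cell death triggered by IL-1 beta plus TNF-alpha plus IFN-gamma mixture; protective hits raise ATP signal compared with cytokine alone wells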
# [23] = target: T5, Heat shock factor protein 1 (Mus musculus, UniProt P38532); assay: inhibition of MG132-induced HSE-luciferase signal, confirmation, cell-based, NIH3T3, luminescence, dose retest (AID 2382); type: functional;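 further: NIH3T3 fibroblasts with HSF1-driven luciferase reporter stressed by proteasome inhibitor MG132; luminescence from HSF1-driven luciferase expression after 8 hours of MG132 stress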
# T5 sequence (P38532 whole entry): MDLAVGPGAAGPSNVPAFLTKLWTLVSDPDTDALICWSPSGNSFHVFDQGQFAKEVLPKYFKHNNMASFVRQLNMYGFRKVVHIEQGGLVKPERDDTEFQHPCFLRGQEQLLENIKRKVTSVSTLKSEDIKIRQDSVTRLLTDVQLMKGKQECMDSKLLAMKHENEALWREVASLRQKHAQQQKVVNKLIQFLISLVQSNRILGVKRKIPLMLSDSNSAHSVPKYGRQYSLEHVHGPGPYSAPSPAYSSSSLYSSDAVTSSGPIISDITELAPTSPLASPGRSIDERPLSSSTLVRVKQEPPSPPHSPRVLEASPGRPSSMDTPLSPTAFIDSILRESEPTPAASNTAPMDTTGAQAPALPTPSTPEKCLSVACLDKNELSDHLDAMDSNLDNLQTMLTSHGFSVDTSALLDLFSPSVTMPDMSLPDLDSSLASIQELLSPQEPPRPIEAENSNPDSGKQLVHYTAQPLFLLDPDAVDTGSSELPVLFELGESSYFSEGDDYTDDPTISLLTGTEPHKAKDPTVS
# [24] = P. falciparum Dd2 growth inhibitors, dose response, SYBR Green, cherry-picked samples (AID 1159567); type: functional, cell-based
# Sequence of DNA dC->dU-editing enzyme APOBEC-3G (Q9HC16 whole entry): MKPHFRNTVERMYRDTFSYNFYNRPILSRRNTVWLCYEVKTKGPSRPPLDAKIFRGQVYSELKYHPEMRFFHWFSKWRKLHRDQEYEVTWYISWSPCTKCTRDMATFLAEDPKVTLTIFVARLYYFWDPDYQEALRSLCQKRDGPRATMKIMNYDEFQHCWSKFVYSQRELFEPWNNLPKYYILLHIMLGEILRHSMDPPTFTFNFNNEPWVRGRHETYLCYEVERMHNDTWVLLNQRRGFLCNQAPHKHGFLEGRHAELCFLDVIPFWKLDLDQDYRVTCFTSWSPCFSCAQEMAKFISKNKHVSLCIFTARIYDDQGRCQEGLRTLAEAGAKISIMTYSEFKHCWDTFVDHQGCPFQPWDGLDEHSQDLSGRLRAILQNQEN
smiles,measurement,setting,value
COc1ccc(CC(=S)N2CCOCC2)cc1,IC50,[1],46.1 µM (active)
Cc1ccc(Sc2ncccc2C(=O)NCc2cc([N+](=O)[O-])ccc2O)c(C)c1,EC50,[2],> 150 µM (inactive)
same,EC50,[3],1.73 µM (active)
O=C(CCc1nc(O)c2ccccc2n1)Nc1ccc(N2CCCCC2)cc1,IC50,[4],> 79 µM (inactive)
OCc1ccnc2c(O)cccc12,EC50,[2],79.8 µM (active)
same,IC50,[5],10.2 µM (active)
same,EC50,[6],> 30 µM (not active)
same,EC50,[7],3.36 µM (active)
same,EC50,[3],> 38 µM (not active)
COc1ccccc1CN1C(=O)CN(C2CCCCCC2)C(=O)C1c1ccc(F)cc1 (configuration not stated),AC50,[8],20.9 µM (active)
same,AC50,[9],60.9 µM (active)
same,AC50,[10],30.9 µM (active)
COc1ccc2c(c1)OC[C@H]1[C@H]2N2C(=O)c3cc(Br)ccc3NC(=O)[C@@]2(C)[C@H]1c1ccccc1,AC50,[11],837 nM (active)
CN(C(=O)Cn1nc(C(=O)O)c2ccccc2c1=O)C1(C#N)CCCCC1,IC50,[4],> 79 µM (inactive)
Cc1noc(NC(=O)c2ccc(Cl)c(Cl)c2)c1Cl,EC50,[2],> 150 µM (inactive)
same,EC50,[3],0.591 µM (active)
COc1ccc(N2C(=O)NC(=O)/C(=C(/C)NCCCn3ccnc3)C2=O)cc1,AC50,[8],4.33 µM (active)
same,AC50,[12],6.76 µM (active)
same,AC50,[9],19.5 µM (active)
same,AC50,[10],2.49 µM (active)
CCCCN=C(S)Nc1ccc2c[nH]nc2c1,EC50,[13],> 350 µM (not active)
same,EC50,[14],> 350 µM (not active)
CC(=O)c1ccc(NC(=O)Nc2cccc3ccccc23)cc1,EC50,[2],19.1 µM (inconclusive)
same,EC50,[3],> 38 µM (not active)
COC(=O)c1ccccc1NC(=O)c1nc2nc(C)cc(C)n2n1,IC50,[4],> 79 µM (inactive)
O=C(NNC(=S)NC(=O)c1ccccc1)c1ccc([N+](=O)[O-])cc1,EC50,[15],> 150 µM (not active)
same,EC50,[2],> 160 µM (inactive)
same,EC50,[16],15.5 µM (active)
same,EC50,[17],4.22 µM (active)
same,EC50,[3],1.46 µM (active)
NC(=O)c1nsc(C(=O)N(c2cccc(F)c2)C(C(=O)NCC2CCCO2)c2c[nH]c3ccccc23)c1N (configuration not stated),IC50,[18],> 20 µM (inactive)
O=C(COC(=O)c1ccc([N+](=O)[O-])o1)Nc1cccc(S(=O)(=O)N2CCCCC2)c1,IC50,[4],> 79 µM (inactive)
Cc1cc2c3c(c1)C1(SCC(=O)N1c1ccc(F)cc1)C(=O)N3C(C)(C)CC2C (configuration not stated),AC50,[12],9.73 µM (active)
same,AC50,[9],> 32 µM (inactive)
same,AC50,[10],3.4 µM (active)
O=S1(=O)CC(O)C(N=Nc2c(O)n(Cc3ccccc3)c3ccccc23)C1 (configuration not stated),IC50,[18],> 20 µM (inactive)
CC1(OC(=O)c2ccco2)C(=O)C=C2C=C(C3CC3)OC=C2C1=O (configuration not stated),EC50,[19],18.3 µM (active)
same,IC50,[20],> 100 µM (active)
same,EC50,[21],20.2 µM (active)
Cc1cc(NC(=O)CSc2nc3c(c(=O)n2-c2ccc(Cl)cc2)SCC3)no1,EC50,[13],> 350 µM (not active)
same,EC50,[14],> 350 µM (not active)
COc1cc(-c2nnc(COC(=O)c3cc(C)nc4ccc(C)cc34)o2)cc(OC)c1OC,IC50,[4],12.3 µM (active)
CCCCC(=O)Nc1ccc(NC(=O)CC)cc1OC,EC50,[13],> 350 µM (not active)
same,EC50,[14],> 350 µM (not active)
Cc1ccc(N2CCN(C3=NC(=O)/C(=C\c4c[nH]nc4-c4ccccc4)S3)CC2)cc1,EC50,[2],> 150 µM (inactive)
same,EC50,[3],8.34 µM (active)
CC(=NNC(=S)N1CC2CCC(CC2)C1)c1cnccn1,AC50,[11],4430 nM (active)
same,IC50,[5],3.16 µM (active)
CCC[C@@H](CN1CCC[C@H]1CN1C(N)=NC[C@@H]1Cc1ccccc1)N1C[C@@H]([C@H](C)CC)N(CCc2ccc(Cl)c(Cl)c2)C1=N,IC50,[18],> 20 µM (inactive)
C#CCOCCOCCOCCNc1nc(N2CCN(C(=O)[C@H](CO)n3cc([C@@H](N)C(C)C)nn3)CC2)nc(N2CCN(C(=O)[C@H](CCC(=O)O)n3cc([C@@H](N)CCCCN)nn3)CC2)n1,IC50,[18],> 20 µM (inactive)
CC(=O)N1CCN(C(=O)CCc2nc(O)c3ccccc3n2)CC1,IC50,[4],> 79 µM (inactive)
O=C(O)c1cccc2c1Cc1cc(Cl)ccc1-2,AC50,[11],723 nM (active)
C/C(=N\NC(=O)c1cc(-c2cccnc2)nc2ccccc12)c1ccccc1O,EC50,[13],> 350 µM (not active)
same,EC50,[14],16.8 µM (active)
same,AC50,[22],971 nM (active)
same,EC50,[6],2.18 µM (active)
same,EC50,[7],0.834 µM (active)
O=C(C[C@@H]1C=C[C@@H](NC(=O)c2ccccc2)[C@H](CO)O1)NCc1ccc(Oc2ccccc2)cc1,AC50,[8],38.2 µM (active)
CC(C)Cn1c(/C=N/Nc2nc3ccccc3[nH]2)nc2ccccc21,EC50,[13],> 350 µM (not active)
same,EC50,[14],52.5 µM (active)
COc1ccc(/C=N/n2c(S)nnc2-c2cc(C)[nH]n2)cc1OC,EC50,[23],> 195 µM (not active)
same,IC50,[1],8.3 µM (active)
O=C(N/N=C/c1cccnc1)c1ccc(NC(=O)c2ccc(Cl)cc2)cc1,EC50,[13],> 350 µM (not active)
same,EC50,[14],> 350 µM (not active)
CCCN1C[C@@H](C)[C@H](OC)CN(C)C(=O)c2ccc(NC(=O)c3cccc(F)c3)cc2OC[C@H]1C,AC50,[24],5.34 µM (active)
O=C(C1CCCC1)N1CC[C@@H]2[C@H]1c1cc(C3=CCCCC3)ccc1N[C@@H]2CO,AC50,[24],2.76 µM (active)
CN(C)Cc1ccc(-c2nc3cccc4c3n2CCNC4=O)cc1,IC50,[4],> 79 µM (inactive)
